Where two headings read alike, the source gives them in different places.
Key:
[1] = tested on: amyloid-beta (Abeta) formation; experiment: secreted Abeta40/Abeta42 ELISA in N2A-APPswe cells; type: cell-based; settings: Mus musculus, 24 hours treatment
Protocol: A neuronal cell-based screening assay capable of sensitive and selective detection of secreted Aβ40 and Aβ42 was established. Mouse neuro-2A neuroblastoma (N2A) cells were co-transfected with pSV2neo selection plasmid and a human APP gene carrying the K670N/M671L Swedish mutations (APPswe) that are known to cause early-onset AD. The transfected cells were selected in G418-containing medium, and single colonies were analyzed for the expression of APPswe. The resulting stable cell line, N2A-APPswe, provides a platform for screening inhibitors that alter Aβ formation from the human APPswe gene. Levels of secreted Aβ40 and Aβ42 in the medium can be quantified by ELISA kits. Table 4 provides results for exemplary subject bisindole compounds on amyloid-beta (Abeta) formation at 5 μM after 24 hours treatment in N2A-APPswe cells.

[2] = target: T1, 5-LOX (Homo sapiens, UniProt P09917); experiment: fluorescence-based enzyme assay of human 5-LOX (Table 3); type: biochemical
T1 sequence (P09917 1-674): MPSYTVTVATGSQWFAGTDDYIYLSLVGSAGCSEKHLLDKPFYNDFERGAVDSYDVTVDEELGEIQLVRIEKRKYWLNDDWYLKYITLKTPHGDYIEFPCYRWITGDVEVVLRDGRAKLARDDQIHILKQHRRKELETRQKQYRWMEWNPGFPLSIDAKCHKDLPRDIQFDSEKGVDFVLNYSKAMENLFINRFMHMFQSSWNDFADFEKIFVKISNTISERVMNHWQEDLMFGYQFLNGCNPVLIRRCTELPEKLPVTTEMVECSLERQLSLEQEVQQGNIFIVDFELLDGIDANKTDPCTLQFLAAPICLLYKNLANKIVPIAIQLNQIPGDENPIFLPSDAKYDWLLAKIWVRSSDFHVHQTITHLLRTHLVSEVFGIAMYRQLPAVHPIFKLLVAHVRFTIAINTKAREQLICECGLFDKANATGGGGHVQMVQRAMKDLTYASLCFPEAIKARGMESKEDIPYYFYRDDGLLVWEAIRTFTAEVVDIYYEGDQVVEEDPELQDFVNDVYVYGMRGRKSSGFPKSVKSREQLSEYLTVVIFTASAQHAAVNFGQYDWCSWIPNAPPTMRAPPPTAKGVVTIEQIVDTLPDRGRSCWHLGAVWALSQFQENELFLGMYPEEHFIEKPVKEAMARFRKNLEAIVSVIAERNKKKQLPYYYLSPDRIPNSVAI
Text: (§1) Table 3 provides results for exemplary subject bisindole compounds on 5-LOX, 12-LOX and 15-LOX.

[3] = target: T2, human 12-LOX (Homo sapiens, UniProt P18054); experiment: colorimetric platelet 12-LOX activity assay (ferric oxidation of xylenol orange, human blood platelets); type: cell-based
T2 construct: ferric oxidation of xylenol orange from arachidonic acid in human blood platelets; endogenous in cells; host or cells: human blood platelets
T2 sequence (P18054 1-663): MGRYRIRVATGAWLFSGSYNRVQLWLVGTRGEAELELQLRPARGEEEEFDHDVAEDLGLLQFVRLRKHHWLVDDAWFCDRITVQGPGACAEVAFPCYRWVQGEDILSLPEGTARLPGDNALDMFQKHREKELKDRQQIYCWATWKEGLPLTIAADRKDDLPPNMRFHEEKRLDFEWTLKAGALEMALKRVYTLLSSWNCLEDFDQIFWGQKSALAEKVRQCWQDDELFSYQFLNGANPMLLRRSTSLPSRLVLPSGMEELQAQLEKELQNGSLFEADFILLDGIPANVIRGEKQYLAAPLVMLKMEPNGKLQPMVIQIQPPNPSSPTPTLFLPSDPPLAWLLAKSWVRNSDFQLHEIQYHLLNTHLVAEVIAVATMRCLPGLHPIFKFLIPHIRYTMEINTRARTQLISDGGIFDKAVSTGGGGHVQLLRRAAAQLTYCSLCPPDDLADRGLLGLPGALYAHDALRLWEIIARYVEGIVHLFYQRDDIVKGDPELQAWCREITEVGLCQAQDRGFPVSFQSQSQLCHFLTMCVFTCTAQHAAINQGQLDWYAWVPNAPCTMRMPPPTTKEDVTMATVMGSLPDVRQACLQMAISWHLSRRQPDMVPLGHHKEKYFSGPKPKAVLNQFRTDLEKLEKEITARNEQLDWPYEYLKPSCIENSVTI
Text: as §1

[4] = target: T3, 15-LOX-2 (Homo sapiens, UniProt O15296); experiment: in vitro 15-LOX-2 inhibition (Table 3); type: biochemical
T3 sequence (O15296 1-676): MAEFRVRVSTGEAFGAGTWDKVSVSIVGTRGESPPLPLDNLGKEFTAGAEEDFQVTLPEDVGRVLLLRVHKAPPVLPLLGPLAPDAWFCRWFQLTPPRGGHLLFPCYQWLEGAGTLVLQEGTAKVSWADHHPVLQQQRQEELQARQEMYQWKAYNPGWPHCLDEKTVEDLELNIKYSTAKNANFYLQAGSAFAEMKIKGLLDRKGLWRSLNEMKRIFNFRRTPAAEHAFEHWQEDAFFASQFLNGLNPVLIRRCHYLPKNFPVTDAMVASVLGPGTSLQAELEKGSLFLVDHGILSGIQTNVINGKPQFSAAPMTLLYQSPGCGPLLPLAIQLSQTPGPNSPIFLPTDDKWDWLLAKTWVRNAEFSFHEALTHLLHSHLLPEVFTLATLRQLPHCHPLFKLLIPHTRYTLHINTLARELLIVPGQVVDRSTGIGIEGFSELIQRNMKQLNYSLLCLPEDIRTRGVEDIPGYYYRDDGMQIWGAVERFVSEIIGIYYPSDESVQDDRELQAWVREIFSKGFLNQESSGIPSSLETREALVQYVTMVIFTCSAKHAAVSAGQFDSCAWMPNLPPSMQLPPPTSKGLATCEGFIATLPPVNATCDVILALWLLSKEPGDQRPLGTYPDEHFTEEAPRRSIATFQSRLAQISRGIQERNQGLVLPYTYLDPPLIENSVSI
Text: as §1

[5] = read-out: Abeta 40 formation (% of control)
[6] = read-out: Abeta 42 formation (% of control)

Row | SMILES | activity at 5 µM [1, 5] | activity at 5 µM [1, 6] | inhibition at 3 µM [2] | inhibition at 3 µM [3] | inhibition at 3 µM [4] | further results
1 | CN(C)CCOc1c2[nH]c3ccc(F)cc3c2c(Cl)c2c1[nH]c1ccc(F)cc12 [drawing 33] | 68% | 55% | – | – | – | –
2 | CN(C)CCOc1c2[nH]c3ccc(F)cc3c2c(Cl)c2c1[nH]c1ccc(F)cc12 [drawing 18] | – | – | 75% | 85% | 17% | –
3 | Nc1nnn(CCOc2c3[nH]c4ccc(Cl)cc4c3cc3c2[nH]c2ccc(Cl)cc23)n1 [drawing 26] | 86% | 75% | – | – | – | –
4 | N=C(N)NCCCOc1c2[nH]c3ccc(Cl)cc3c2cc2c1[nH]c1ccc(Cl)cc12 | 77% | 8% | – | – | – | –
5 | Nc1nnn(CCOc2c3[nH]c4ccc(Cl)cc4c3cc3c2[nH]c2ccc(Cl)cc23)n1 [drawing 9] | – | – | 70% | 77% | 19% | –
6 | Fc1ccc2[nH]c3c(OC[C@@H]4CCCN4)c4[nH]c5ccc(F)cc5c4cc3c2c1 | – | – | 92% | 88% | 55% | –
7 | Fc1ccc2[nH]c3c(OC[C@@H]4C[C@H](F)CN4)c4[nH]c5ccc(F)cc5c4cc3c2c1 [drawing 19] | – | – | 87% | 87% | 41% | –
8 | Cc1c2[nH]c3ccccc3c2cc2c1[nH]c1ccccc12 | – | – | 52% | 76% | 16% | –
9 | CCN(CC)CCOC(=O)c1ccc2[nH]c3c(OC)c4[nH]c5ccc(C(=O)OCCN(CC)CC)cc5c4cc3c2c1 | – | – | – | – | – | inhibition at 10 µM ([2]; 10 μM (footnote *)): 80%; inhibition at 10 µM ([3]; 10 μM (footnote *)): 12%
10 | Fc1ccc2[nH]c3c(OCC4CCCN4)c4[nH]c5ccc(F)cc5c4cc3c2c1 (stereo not drawn) [drawing 14] | – | – | 94% | 78% | 61% | –
11 | Fc1ccc2[nH]c3c(OCC4CCCN4)c4[nH]c5ccc(F)cc5c4c(C(F)(F)F)c3c2c1 (stereo not drawn) [drawing 17] | – | – | 77% | 77% | 17% | –
12 | Fc1ccc2[nH]c3c(OCC4CCCO4)c4[nH]c5ccc(F)cc5c4cc3c2c1 (stereo not drawn) | 74% | 42% | – | – | – | –
13 | Fc1ccc2[nH]c3c(OCCN4CC[C@H](F)C4)c4[nH]c5ccc(F)cc5c4cc3c2c1 | 75% | 35% | – | – | – | –
14 | Nc1nnnn1CCOc1c2[nH]c3ccc(Cl)cc3c2cc2c1[nH]c1ccc(Cl)cc12 [drawing 27] | 81% | 71% | – | – | – | –
15 | CCOC(=O)c1ccc2[nH]c3c(O[C@H]4CCNC4)c4[nH]c5ccc(C(=O)OCC)cc5c4cc3c2c1 [drawing 35] | 70% | 48% | – | – | – | –
16 | Clc1ccc2[nH]c3c(OCCCn4cncn4)c4[nH]c5ccc(Cl)cc5c4cc3c2c1 [drawing 25] | 66% | 54% | – | – | – | –
17 | COc1c2[nH]c3ccc(F)cc3c2c(N2CCOCC2)c2c1[nH]c1ccc(F)cc12 | 77% | 43% | – | – | – | –
18 | Cc1nnn(CCOc2c3[nH]c4ccc(F)cc4c3cc3c2[nH]c2ccc(F)cc23)n1 | 66% | 36% | – | – | – | –
19 | Fc1ccc2[nH]c3c(OCC4CCCN4)c4[nH]c5ccc(F)cc5c4c(C(F)(F)F)c3c2c1 (stereo not drawn) [drawing 32] | 89% | 69% | – | – | – | –

Source: US20130345214A1, “Lipoxygenase Inhibitors” (SRI International, Inc., priority 2011, published 2013)
